Data published in patent publication US12365706B2, “Macrocyclic peptides as potent inhibitors of K-RAS G12D mutant” (Merck Sharp & Dohme LLC, priority 2019, dated 2025).
pEC50: −log10 of the molar value. Starred links: 1 amine or outer side, 2 acyl side, 3 side chain; linkers in the order of their positions; H or OH if unused. Positions of bridges follow the written chain, without caps; N, C: chain ends. Non-standard residues stand in square brackets, D forms with d. Residues, ends and D or L forms follow the SMILES beside them. Lys(N3) = [N-]=[N+]=NCCCC[C@H](N)C(=O)O; AEEA = NCCOCCOCC(=O)O; CH2 = C([*:1])[*:2]

Tests used:
K-Ras(G12D) (GMPPNP) = target: T1, K-Ras(G12D) (GMPPNP) (Homo sapiens, UniProt P01116, G12D); assay: TR-FRET competitive binding assay, K-Ras(G12D) loaded with GMPPNP
T1 construct: His-SUMO-tagged human K-Ras resides 1-169 was expressed; His-SUMO (N, cleaved yes); made in house; host or cells: E. coli Rosetta 2 (DE3)

K-Ras^G12D (GDP) [1] = target: T2, K-Ras^G12D (GDP) (Homo sapiens, UniProt P01116, G12D); assay: TR-FRET competitive binding assay, K-Ras(G12D) loaded with GDP
T2 construct: His-SUMO-tagged human K-Ras resides 1-169 was expressed; His-SUMO (N, cleaved yes); made in house; host or cells: E. coli Rosetta 2 (DE3)

K-Ras(G12D) = K-Ras(G12D) (Homo sapiens, UniProt P01116, G12D); settings: cited from earlier work
[2] = Cell homogenate stability assay; type: in vitro ADME
Procedure: Stability of peptides towards intracellular proteases can be evaluated using HeLa cell homogenate. Suspended HeLa cells at 1 million cells/mL are sonicated in bursts with a probe sonicator on ice until uniformly homogenized. The homogenate thus prepared is frozen and stored at −20° C. until use. The peptides are incubated with the homogenate at 1 million cells/mL and loss of the peptide with increasing time is quantified using LC-MS/MS. Briefly, the test peptide is incubated with the homogenate at 1 μM in final volume of 50 μL at 37° C. At 0, 10, 30, 60 and 120 min, the reactions are quenched with 150 μL solution of 80% (v/v) Acetonitrile in Methanol containing a known internal standard peptide. The quenched samples are centrifuged at 4000 rpm for 5 min at 10° C. and supernatants are injected for bioanalysis by liquid chromatography combined with tandem-mass spectrometer. […] In addition, pre-boiled homogenate (prepared by incubating homogenate for 30 min in boiling water) is also used as a negative control for each test peptide. The ke is first-order rate constant describing the disappearance of parent drug in the incubation and may be obtained from regressing the initial slope (ke=−(slope)) of the natural log of the analyte area/internal standard area (designated as C at an appointed time t) in C versus time (min) profile. The half-life (t½) is calculated as: […]

ERK1/2 = settings: cited from earlier work
[3] = tested on: AsPC-1 (homozygous K-Ras(G12D)) cells; assay: Cellular phospho-ERK assay in AsPC-1 cells; type: cell-based
Procedure: The cellular K-Ras inhibitory activity was evaluated by phosphorylation levels of ERK1/2 in AsPC-1 (homozygous K-Ras(G12D)) cells. AsPC-1 cells (ATCC® CRL-1682™) were cultured in T175 flask in growth medium (RPMI 1640 Medium, GlutaMAX™ Supplement, HEPES (Gibco 72400-047) supplemented with 10% fetal bovine serum (Hyclone SH30071.03) and 1× Penicillin/Streptomycin (Gibco 15140-122). The cells were harvested in seeding medium (RPMI 1640 Medium, no phenol red (Gibco 11835-030) supplemented with 10% fetal bovine serum (Hyclone SH30071.03), 25 mM HEPES (Gibco 15630-080) and 1× Penicillin/Streptomycin (Gibco 15140-122) after 5 min of 0.25% Trypsin-EDTA (Gibco 25200-056) digestion and were seeded in 384-well tissue culture treated plate (Greiner 781091) at a density of 15,000 cells/25 μL/well, and incubated at 37° C., 5% CO2 overnight. […] Phosphorylated ERK and total ERK levels were detected by Alpha SureFire Ultra Multiplex pERK kit (PerkinElmer MPSU-PTERK) using […] and 5 μL donor bead mix, both prepared following the manufacturer's protocol. […] Ratio of pERK vs total ERK in each well was used as the final readout. Dose response curves and EC50 were analyzed using a 4-parameter logistic equation in GraphPad Prism software (GraphPad, San Diego, CA).

[4] = tested on: A427 cells (which contain the K-Ras(G12D) mutation); settings: dose-dependent manner; cited from earlier work
K-Ras^G12D (GDP) [5] = target: T2, K-Ras^G12D (GDP); assay: TR-FRET [K-Ras^G12D (GDP)] | EC50 (nM)

| Compound | affinity for the GTP-loaded form of K-Ras (G12D) (K-Ras(G12D) (GMPPNP)) | affinity for the GDP-loaded form of K-Ras (G12D) (K-Ras^G12D (GDP) [1]) | mutant selectivity in SOS1-mediated GDP-GTP exchange (K-Ras(G12D); G12D against G12C and wild-type K-Ras) | inhibition of SOS1-mediated GDP-GTP exchange (K-Ras(G12D)) | proteolytic degradation of the macrocycle in a cell homogenate stability study [2] | phosphorylation levels of ERK1/2 (ERK1/2) | inhibition of ERK phosphorylation in an AsPC-1 cell line [3] | cell proliferation of A427 cells [4] | pEC50 (K-Ras^G12D (GDP) [5]) |
| --- | --- | --- | --- | --- | --- | --- | --- | --- | --- |
| CC[C@H](C)[C@@H]1NC(=O)[C@H](Cc2ccc(O)cc2)NC(=O)[C@H](CC(C)C)NC(=O)[C@@H]2CCCN2C(=O)[C@@H](NN[C@@H](CCCNC(=N)N)C(=O)N[C@@H](CCCNC(=N)N)C(=O)N[C@@H](CCCNC(=N)N)C(=O)N[C@@H](CCCNC(=N)N)C(=O)CC=O)CSSC[C@@H](C(=O)N[C@@H](CCCNC(=N)N)C(=O)N[C@@H](CCCNC(=N)N)C(=O)N[C@@H](CCCNC(=N)N)C(=O)N[C@@H](CCCNC(=N)N)C(N)=O)NC(=O)[C@H](C(C)C)NC(=O)[C@@H]2CCCN2C(=O)[C@H](CC(=O)O)NC(=O)[C@H](Cc2ccc(O)cc2)NC(=O)[C@H](CO)NC1=O [KRpep-2d] | weaker affinity | high affinity | G12D-mutant selectivity against G12C and wild-type K-Ras variants | potently inhibited | rapid proteolytic degradation | reduced phosphorylation levels of ERK1/2 | absence of biological activity | suppressed cell proliferation | – |
| CC[C@H](C)[C@@H]1NC(=O)[C@H](Cc2ccc(O)cc2)NC(=O)[C@H](CC(C)C)NC(=O)[C@@H]2CCCN2C(=O)[C@H](NC(=O)COCCOCCNC(=O)[C@H](CCCCN=[N+]=[N-])NC(=O)CNC(=O)[C@H](CCCCN)NC(=O)[C@H](CCCCN)NC(=O)[C@H](Cc2c[nH]c3ccccc23)NC(=O)[C@H](CCCCN)NC(=O)[C@H](CCSC)NC(=O)[C@H](CCCNC(=N)N)NC(=O)[C@H](CCCNC(=N)N)NC(=O)[C@H](CC(N)=O)NC(=O)[C@H](CCC(N)=O)NC(=O)[C@H](Cc2ccccc2)NC(=O)[C@H](Cc2c[nH]c3ccccc23)NC(=O)[C@@H](NC(=O)[C@H](CCCCN)NC(=O)[C@@H](NC(=O)[C@H](CCC(N)=O)NC(=O)[C@H](CCCNC(=N)N)NC(C)=O)[C@@H](C)CC)[C@@H](C)CC)CSCSC[C@@H](C(=O)N[C@@H](CCCNC(=N)N)C(N)=O)NC(=O)[C@H](C(C)C)NC(=O)[C@@H]2CCCN2C(=O)[C@H](CC(=O)O)NC(=O)[C@H](Cc2ccc(O)cc2)NC(=O)[C@H](CO)NC1=O [SEQ ID NO: 16] (Ac-RQIKIWFQNRRMKWKKG[Lys(N3)][AEEA][dC]PLYISYDPVCR-NH2; linker 20-30 via CH2) | – | – | – | – | – | – | – | – | 6.40 |
